Tests used:
[1] = test system: Becker (Low Grade Glioma); assay: Bliss excess, mean over the matrix (fraction); higher = more synergy
Procedure, shortened: (§1)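 Bliss excess equals the observed combination effect minus the expected value EA + EB − EA·EB, where EA and EB are the effects of each agent alone. Combination Emax is the second-highest inhibition within the matrix. Inhibition was scaled from CellTiter-Glo 2.0 luminescence, with 0 set by vehicle wells and 1 by blank wells, after 72 hours of two-drug dosing of cells plated in 1536-well plates.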

[2] = test system: CHL-1 (Melanoma); assay: as above
Procedure, shortened: as §1

[3] = test system: CML-T1 (Chronic Myelogenous Leukemia); assay: as above
Procedure, shortened: as §1

[4] = test system: COLO-684 (Endometrial Carcinoma); assay: as above
Procedure, shortened: as §1

[5] = test system: EB-3 (Burkitt's Lymphoma); assay: as above
Procedure, shortened: as §1

[6] = test system: FLO-1 (Esophageal Adenocarcinoma); assay: as above
Procedure, shortened: as §1

[7] = test system: HCC-44 (Lung Adenocarcinoma); assay: as above
Procedure, shortened: as §1

[8] = test system: KYM-1 (Rhabdomyosarcoma); assay: as above
Procedure, shortened: as §1

[9] = test system: KYSE-70 (Esophageal Squamous Cell Carcinoma); assay: as above
Procedure, shortened: as §1

[10] = test system: LAMA-84 (Chronic Myelogenous Leukemia); assay: as above
Procedure, shortened: as §1

[11] = test system: LOUCY (T-Lymphoblastic Leukemia); assay: as above
Procedure, shortened: as §1

[12] = test system: NCI-H1755 (Lung Adenocarcinoma); assay: as above
Procedure, shortened: as §1

[13] = test system: NCI-H810 (Non-Small Cell Lung Carcinoma); assay: as above
Procedure, shortened: as §1

[14] = test system: NKM-1 (Acute Myeloid Leukemia); assay: as above
Procedure, shortened: as §1

[15] = test system: OV-90 (Ovarian Carcinoma); assay: as above
Procedure, shortened: as §1

[16] = test system: PANC-02-03 (Pancreatic Carcinoma); assay: as above
Procedure, shortened: as §1

[17] = test system: PC-14 (Lung Adenocarcinoma); assay: as above
Procedure, shortened: as §1

[18] = test system: RMG-I (Ovarian Carcinoma); assay: as above
Procedure, shortened: as §1

[19] = test system: SK-MM-2 (Plasma Cell Myeloma); assay: as above
Procedure, shortened: as §1

[20] = test system: SW684 (Other Solid Carcinomas); assay: as above
Procedure, shortened: as §1

[21] = test system: Becker (Low Grade Glioma); assay: combination Emax (second highest fraction inhibited in the dose matrix, 72 h); higher = more inhibition; extreme values may be limits of the assay
Procedure, shortened: as §1

[22] = test system: CHL-1 (Melanoma); assay: as above
Procedure, shortened: as §1

[23] = test system: CML-T1 (Chronic Myelogenous Leukemia); assay: as above
Procedure, shortened: as §1

[24] = test system: COLO-684 (Endometrial Carcinoma); assay: as above
Procedure, shortened: as §1

[25] = test system: EB-3 (Burkitt's Lymphoma); assay: as above
Procedure, shortened: as §1

[26] = test system: FLO-1 (Esophageal Adenocarcinoma); assay: as above
Procedure, shortened: as §1

[27] = test system: HCC-44 (Lung Adenocarcinoma); assay: as above
Procedure, shortened: as §1

[28] = test system: KYM-1 (Rhabdomyosarcoma); assay: as above
Procedure, shortened: as §1

[29] = test system: KYSE-70 (Esophageal Squamous Cell Carcinoma); assay: as above
Procedure, shortened: as §1

[30] = test system: LAMA-84 (Chronic Myelogenous Leukemia); assay: as above
Procedure, shortened: as §1

[31] = test system: LOUCY (T-Lymphoblastic Leukemia); assay: as above
Procedure, shortened: as §1

[32] = test system: NCI-H1755 (Lung Adenocarcinoma); assay: as above
Procedure, shortened: as §1

[33] = test system: NCI-H810 (Non-Small Cell Lung Carcinoma); assay: as above
Procedure, shortened: as §1

[34] = test system: NKM-1 (Acute Myeloid Leukemia); assay: as above
Procedure, shortened: as §1

[35] = test system: OV-90 (Ovarian Carcinoma); assay: as above
Procedure, shortened: as §1

[36] = test system: PANC-02-03 (Pancreatic Carcinoma); assay: as above
Procedure, shortened: as §1

[37] = test system: PC-14 (Lung Adenocarcinoma); assay: as above
Procedure, shortened: as §1

[38] = test system: RMG-I (Ovarian Carcinoma); assay: as above
Procedure, shortened: as §1

[39] = test system: SK-MM-2 (Plasma Cell Myeloma); assay: as above
Procedure, shortened: as §1

[40] = test system: SW684 (Other Solid Carcinomas); assay: as above
Procedure, shortened: as §1

| Structure (SMILES) | Bliss excess [1] | Bliss excess [2] | Bliss excess [3] | Bliss excess [4] | Bliss excess [5] | Bliss excess [6] | Bliss excess [7] | Bliss excess [8] | Bliss excess [9] | Bliss excess [10] | Bliss excess [11] | Bliss excess [12] | Bliss excess [13] | Bliss excess [14] | Bliss excess [15] | Bliss excess [16] | Bliss excess [17] | Bliss excess [18] | Bliss excess [19] | Bliss excess [20] | combination Emax [21] | combination Emax [22] | combination Emax [23] | combination Emax [24] | combination Emax [25] | combination Emax [26] | combination Emax [27] | combination Emax [28] | combination Emax [29] | combination Emax [30] | combination Emax [31] | combination Emax [32] | combination Emax [33] | combination Emax [34] | combination Emax [35] | combination Emax [36] | combination Emax [37] | combination Emax [38] | combination Emax [39] | combination Emax [40] |
| --- | --- | --- | --- | --- | --- | --- | --- | --- | --- | --- | --- | --- | --- | --- | --- | --- | --- | --- | --- | --- | --- | --- | --- | --- | --- | --- | --- | --- | --- | --- | --- | --- | --- | --- | --- | --- | --- | --- | --- | --- |
| O=C(c1cc(Cc2n[nH]c(=O)c3ccccc23)ccc1F)N1CCN(C(=O)C2CC2)CC1 [Olaparib] + Cc1c2c(nn1C)CSCc1cc(n(C)n1)CSc1cc(c3ccccc3c1)OCCCc1c(C(=O)O)n(C)c3c-2c(Cl)ccc13 [AZD5991] (first compound max 10 µM, 7x7, partner max 1 µM) | -0.0125 | -0.0174 | -0.0255 | -0.0104 | -0.0579 | -0.0102 | -0.0267 | 0.0435 | -0.032 | -0.0136 | -0.0086 | -0.0215 | -0.0578 | 0.0786 | -0.0554 | -0.0465 | -0.0279 | -0.0627 | -0.0093 | -0.0763 | 0.22 | 0.312 | 0.832 | 0.224 | 0.0218 | 0.253 | 0.117 | 0.832 | 0.104 | 0.223 | 0.234 | 0.18 | 0.49 | 1 | 0.114 | 0.128 | 0.0956 | 0.123 | 0.111 | 0.0699 |
| N#Cc1cnc(Nc2cc(NC[C@H]3CNCCO3)c(C(F)(F)F)cn2)cn1 [SRA737] + O=c1[nH]cc(F)c(=O)[nH]1 [5-Fluorouracil] (first compound max 10 µM, 7x7, partner max 20 µM) | 0.0222 | -0.0351 | -0.0498 | -0.0334 | -0.0561 | 0.0266 | 0.125 | -0.0559 | -0.0214 | -0.057 | -0.0122 | 0.0078 | -0.0924 | -0.0812 | -0.0306 | 0.0463 | -0.0109 | -0.0735 | -0.034 | -0.0315 | 0.644 | 0.494 | 0.994 | 0.644 | 0.624 | 0.803 | 0.861 | 0.927 | 0.196 | 0.913 | 0.911 | 0.679 | 0.427 | 0.919 | 0.247 | 0.407 | 0.696 | 0.106 | 0.473 | 0.273 |
| CN(CCO)CC[C@H](CSc1ccccc1)Nc1ccc(S(=O)(=O)NC(=O)c2ccc(N3CCC([C@@H](O)c4ccccc4-c4ccc(Cl)cc4)CC3)cc2)cc1S(=O)(=O)C(F)(F)F [AZD4320] + Nc1ccn([C@@H]2O[C@H](CO)[C@@H](O)C2(F)F)c(=O)n1 [Gemcitabine] (first compound max 1 µM, 7x7, partner max 0.3 µM) | 0.0818 | 0.0768 | -0.0189 | -0.0157 | 0.0031 | 0.0443 | 0.0237 | 0.001 | -0.0342 | 0.0346 | 0.0431 | -0.0211 | -0.0458 | 0.0029 | 0.0718 | -0.071 | 0.0292 | 0.0063 | 0.0061 | -0.0442 | 0.8 | 0.686 | 1 | 0.429 | 0.469 | 0.776 | 0.641 | 1 | 0.159 | 0.979 | 1 | 0.463 | 0.593 | 1 | 0.88 | 0.482 | 0.699 | 0.866 | 1 | 0.524 |
| N#Cc1cnc(Nc2cc(NC[C@H]3CNCCO3)c(C(F)(F)F)cn2)cn1 [SRA737] + Nc1ccn([C@@H]2O[C@H](CO)[C@@H](O)C2(F)F)c(=O)n1 [Gemcitabine] (first compound max 10 µM, 7x7, partner max 0.3 µM) | 0.0323 | 0.0859 | 0.0539 | -0.0824 | 0.125 | 0.124 | 0.149 | -0.0294 | 0.0297 | 0.039 | 0.127 | 0.0184 | 0.112 | 0.0289 | -0.0752 | 0.0122 | 0.0155 | -0.042 | 0.112 | 0.0294 | 0.747 | 0.803 | 1 | 0.657 | 0.806 | 0.908 | 0.853 | 1 | 0.643 | 0.973 | 0.96 | 0.775 | 0.779 | 1 | 0.609 | 0.595 | 0.806 | 0.402 | 0.708 | 0.494 |
| Cc1cc2ncnn2cc1Nc1ncc2c(n1)n(C1CCOCC1)c(=O)n2C [AZD7648] + COc1cc([C@@H]2c3cc4c(cc3[C@@H](O[C@@H]3O[C@@H]5CO[C@@H](C)O[C@H]5[C@H](O)[C@H]3O)[C@H]3COC(=O)[C@H]23)OCO4)cc(OC)c1O [Etoposide] (first compound max 10 µM, 7x7, partner max 10 µM) | 0.096 | 0.0767 | 0.0779 | -0.0174 | 0.0374 | 0.0863 | 0.0009 | 0.119 | -0.0437 | 0.154 | 0.0421 | 0.0418 | -0.079 | 0.106 | -0.0525 | 0.0386 | 0.097 | 0.01 | 0.0378 | -0.0208 | 0.748 | 0.82 | 1 | 0.497 | 0.942 | 0.85 | 0.809 | 0.927 | 0.168 | 0.948 | 0.968 | 0.486 | 0.598 | 0.976 | 0.399 | 0.378 | 0.757 | 0.386 | 0.437 | 0.428 |
| CN(CCO)CC[C@H](CSc1ccccc1)Nc1ccc(S(=O)(=O)NC(=O)c2ccc(N3CCC([C@@H](O)c4ccccc4-c4ccc(Cl)cc4)CC3)cc2)cc1S(=O)(=O)C(F)(F)F [AZD4320] + CS(=O)(=O)CCNCc1ccc(-c2ccc3ncnc(Nc4ccc(OCc5cccc(F)c5)c(Cl)c4)c3c2)o1 [Lapatinib] (first compound max 1 µM, 7x7, partner max 10 µM) | 0.0497 | 0.0412 | -0.0077 | -0.0766 | -0.0721 | 0.0298 | -0.0303 | 0.021 | -0.0022 | 0.0411 | 0.0586 | 0.0015 | -0.0665 | 0.0418 | -0.02 | 0.0082 | 0.0043 | 0.0763 | 0.0729 | -0.0169 | 0.912 | 0.718 | 1 | 0.34 | 0.605 | 0.842 | 0.472 | 0.395 | 0.177 | 0.989 | 1 | 0.702 | 0.518 | 1 | 0.849 | 0.875 | 0.964 | 0.972 | 1 | 0.823 |
